This note sets out measurements from US20080262228A1, “Metabolites of 5-fluoro-8- quinoline and methods of preparation and uses thereof” (Wyeth, priority 2006, published 2008).

Where a name gives a salt, the structure may show the parent alone.

Data set [1] is described as follows: Metabolite profiling in liver microsomes and S9. Type of data set: in vitro ADME, rat, dog, monkey, human. As to conditions: liver microsomes and S9, 10 μM COMPOUND I, 30 min; species letters not defined. As to the method: Microsomal incubations for metabolite profiling were similar to those described above for intrinsic clearance determination (see Table 1). Aliquots of COMPOUND I (10 μL), dissolved in DMSO:methanol (1:9), were added to a 96-well plate containing phosphate buffer, and MgCl2 and the liver microsomes at 37° C. using the same automation apparatus as for the stability study described hereinabove. The reactions were initiated by the addition of the UDPGA and NADPH generating system. The final incubation volume for all samples was 1 mL and the length of incubation was 30 min. […] Three 250 μL aliquots were transferred to a 96-well plate containing 900 μL acetonitrile to precipitate the protein. […] The samples were then reconstituted in 150 μL of 20% methanol in water. The three aliquots for each sample were pooled and analyzed by LC/MS.
S9 incubation buffer and cofactors were chosen to allow N-acetylation and carbamoyl glucuronidation in addition to oxidative and glucuronidation pathways possible in liver microsomes. Incubations of sulfamethazine and SCA-136 with liver S9 were used as positive controls for N-acetylation and carbamoyl glucuronidation, respectively. Following a 30 min. incubation, 750 μL from each sample were added to 900 μL acetonitrile. Following centrifugation and evaporation of the supernatant, the samples were reconstituted in 450 μL of 20% methanol in water for analysis by HPLC/UV and LC/MS (see below).
The HPLC system used for mass spectrometric analysis was an Agilent 1100 HPLC (Agilent Technologies, Palo Alto, Calif.) equipped with a binary pump and a diode array UV detector. The UV detector was set to monitor 190-400 nm. Separations were accomplished on a Luna C18 column (150×2.1 mm, 5 μm) (Phenomenex Incorporated, Torrance, Calif.).
The mass spectrometer used for metabolite characterization was a Finnigan LCQ Deca ion trap mass spectrometer (Thermo Electron Corp.). […] Full scan and data dependent MS2 and MS3 mass spectra were recorded. Finnigan Xcalibur software (version 1.3) was used for control of equipment and recording of data from UV and LC/MS analyses.
Chromatographic profiles of COMPOUND I (10 μM) metabolites in incubations with liver microsomes in the presence of NADPH are presented in FIG. 1. Chromatographic profiles of COMPOUND I (10 μM) metabolites in incubations with liver microsomes in the presence of NADPH and UDPGA are presented in FIG. 2. Chromatographic profiles of COMPOUND I (10 μM) metabolites in incubations with liver S9 in the presence of NADPH, UDPGA and acetyl coenzyme A (CoA) are presented in FIG. 3. In incubations containing NADPH, UDPGA and acetyl CoA, fourteen Phase I metabolites (M1, M6, M8, M12, M13, M14, M15, M16, M17, M18, M20, M21, M22 and M23) and six Phase II metabolites (M2, M3, M5, M7, M9 and M10) were observed. In incubations without cofactors, no metabolites were observed.
LC/MS analysis was conducted on extracts of mouse, rat, monkey and human liver microsomes and S9. The mass spectral data for the characterized COMPOUND I metabolites are discussed below.
A general note: Liver microsomes are a subcellular fraction often used to study metabolism.

Data set [2] is described as follows: In vivo metabolism of [14C]COMPOUND I in Sprague-Dawley rats, single oral 5 mg/kg dose. Set-up: species or system rat. As to conditions: for Chromatographic Distribution of Radioactivity in Pooled Plasma Samples: 5 mg/kg oral [14C]COMPOUND I. As to the method: Dose preparation, animal dosing, and specimen collection were performed at Wyeth Research, Collegeville, Pa. The vehicle contained 2% (w/v) polysorbate 80, NF and 0.5% (w/v) methylcellulose (4000 cps) in water. [^14C]COMPOUND I trisuccinate salt (36.6 mg) and non-labeled COMPOUND I trisuccinate salt (26.7 mg) were dissolved in 1 mL of ethanol and suspended in 35 mL of the vehicle with stirring. The target [^14C]COMPOUND I concentration was approximately 1 mg/mL as free base and 70 μCi/mL with a target specific activity of 70 μCi/mg. Three pre- and post-dose aliquots (100 μL) were taken for the determination of radiochemical purity, drug and radioactivity concentrations and specific activity (see below).
Male rats weighing from 323 to 354 g and female rats weighing from 270 to 317 g at the time of dosing were purchased from Charles River Laboratories (Wilmington, Mass.). Non-fasted rats were given a single 5 mg/kg (˜350 μCi/kg) dose of [^14C]COMPOUND I at a volume of 5.0 mL/kg via intragastric gavage. Three rats were dosed for each time point. Animals were provided Purina rat chow and water ad libitum, and were kept individually in metabolism cages.
Blood samples were collected at 1, 3, 6 and 24 hr from male rats and at 1 and 3 hr from female rats after dose administration by cardiac puncture into tubes containing EDTA as the anticoagulant and placing them on ice. Triplicate aliquots (50 μL) of whole blood were removed and plasma was immediately obtained from the remaining blood by centrifugation at 4° C. Whole brain samples were collected after saline perfusion at 1, 3, 6 and 24 hr post-dose from male rats and at 1 and 3 hr post-dose from female rats. Urine samples were collected on dry ice from male rats at intervals of 0-6 and 6-24 hr post-dose. Feces were collected from male rats at 0-24 hr post-dose at room temperature. The biological specimens and aliquots of the dose suspension were stored at approximately −70° C. until analysis.
Triplicate aliquots of diluted dose (20 μL), dose fractions (10 μL), and plasma (50 μL) and urine (100 μL) from individual rats were analyzed for radioactivity concentrations. Radioactivity determinations were made with a Tri-Carb Model 3100 TR liquid scintillation counter (LSC) (Perkin Elmer) using 5 mL of Ultima Gold as the scintillation fluid.
Brain and fecal samples from individual rats were weighed and homogenized in water at a volume-to-weight ratio of about 3:1 and 5:1, respectively, with a Polytron PT homogenizer at ice-cold temperature. Duplicate aliquots of blood (50 μL), brain homogenates (0.2 g) and fecal homogenates (0.2 g) were placed on Combusto-cones with Combusto-pads and allowed to dry overnight. Samples were combusted with a model 307 Tri-Carb Sample Oxidizer, equipped with an Oximate-80 Robotic Automatic Sampler (Perkin Elmer). The liberated ^14CO2 was trapped with Carbo-Sorb E carbon dioxide absorber, mixed with PermaFluor® E^+ liquid scintillation cocktail, and counted in a Tri-Carb Model 3100 TR/LL liquid scintillation counter (Perkin Elmer).
Plasma samples were pooled by equal volumes from three animals at each time point (1, 3, 6 and 24 hr for males; 1 and 3 hr for females). Aliquots of 2 mL of pooled plasma were mixed with 2 mL of acetonitrile, placed on ice for about 10 min, and then centrifuged at 4° C. The supernatant was transferred to a clean tube. The protein pellets were extracted two more times with 4 mL of acetonitrile. The supernatants from precipitation and extraction of each sample were pooled, mixed, and evaporated at 22° C. under nitrogen in a TurboVap LV evaporator (Caliper Life Sciences, Hopkinton, Mass.) to about 1.0 mL. The concentrated extract was centrifuged, the supernatant volume measured and the extraction efficiency was determined by analyzing duplicate 10 μL aliquots for radioactivity concentrations.

The nature of data set [3]: In vivo metabolism and excretion of [14C]COMPOUND I in male beagle dogs, single oral 3 mg/kg dose. Set-up: species or system dog. As to conditions: 3 mg/kg oral. The procedure:
Dose preparation, animal dosing, and specimen collection were performed at Wyeth Research, Collegeville, Pa. The vehicle contained 2% (w/v) polysorbate 80, NF and 0.5% (w/v) methylcellulose (4000 cps) in water. [^14C]COMPOUND I trisuccinate salt (50.25 mg) and non-labeled COMPOUND I trisuccinate salt (331.9 mg) were suspended in 72 mL of the vehicle by grinding with a mortar and a pestle. The target [^14C]COMPOUND I concentration was approximately 3 mg/mL as free base and 48 μCi/mL with a target specific activity of 16 μCi/mg. Three pre- and post-dose aliquots (100 μL) were taken for the determination of radiochemical purity, drug and radioactivity concentrations and specific activity (see below).
Four male beagle dogs, weighing from 9.4 to 11.5 kg at the time of dosing, were from an in-house colony. Non-fasted dogs were given a single 3 mg/kg (approximately 48 μCi/kg) dose of [^14C]COMPOUND I at a volume of 1 mL/kg via intragastric gavage. Animals were provided Purina dog chow and water ad libitum, and were housed individually in metabolic cages.
Blood samples were collected from the jugular vein at 1, 4, 8, 24, 48, 72 and 120 hr after dose administration into tubes containing potassium EDTA as the anticoagulant and then placed on ice. Aliquots of 200 μL were removed and plasma was harvested immediately from the remaining blood by centrifugation at 4° C. Urine samples were collected into tubes on dry ice from 0-24 and 24-48 hr, and then at ambient temperature at 24 hr intervals for 7 days post-dose. Fecal samples were collected at 24 hr intervals for 7 days post-dose at room temperature. Cage rinses were collected daily by rinsing each cage with approximately 500 mL of 30% ethanol in water. The dose aliquots and biological specimens were stored at approximately −70° C. until analysis.
Triplicate aliquots of diluted dose (20 μL), dose fractions (10 μL) and plasma (50 μL), urine (200 μL) and cage wash (500 μL) from individual dogs were analyzed for radioactivity content. The samples were assayed in a Tri-Carb Model 3100TR liquid scintillation counter (Perkin Elmer) using 5 mL of Ultima Gold scintillation cocktail.
Fecal samples from individual dogs were weighed and homogenized in water at a volume-to-weight ratio of about 4:1 with a Silverson sealed-unit homogenizer at ambient temperature. Triplicate aliquots of whole blood (50 μL) and fecal homogenates (approximately 0.2 g) were placed into Combusto-cones with Combusto-pads and allowed to dry overnight. Samples were combusted with a model 307 Tri-Carb Sample Oxidizer, equipped with an Oximate-80 Robotic Automatic Sampler (Perkin Elmer). The liberated ^14CO2 was trapped with Carbo-Sorb® E carbon dioxide absorber, mixed with PermaFluor® E+liquid scintillation cocktail, and counted in a Tri-Carb Model 3100 TR/LL liquid scintillation counter.
Plasma samples were pooled by mixing equal volumes from four animals at each time point (1, 4, 8 and 24 hr). Aliquots of 2.0 mL of pooled plasma were mixed with 2.0 mL of acetonitrile, placed on ice for about 10 min, and then centrifuged at 4° C. The supernatant was transferred to a clean tube. The protein pellets were extracted two more times with 2.0 mL of acetonitrile. The supernatants from precipitation and extraction of each sample were pooled, mixed, and evaporated at 22° C. under nitrogen in a TurboVap LV evaporator (Caliper Life Sciences, Hopkinton, Mass.) to about 0.8 mL. The concentrated extract was centrifuged, the supernatant volume measured and the extraction efficiency was determined by analyzing duplicate 10 μL aliquots for radioactivity concentrations. For metabolite profiling, an aliquot of the supernatant (200 μL) was injected onto the HPLC column as described hereinbelow, and fractions were collected at 20 second intervals into 96-well Lumaplates (Perkin Elmer).

Data set [4] can be described thus: Turnover to metabolites in cryopreserved hepatocytes. The conditions noted are these: 100 μM, 1 hr. The procedure: Chromatographic analyses were performed with a Waters Alliance model 2695 HPLC system (Waters Corp., Milford, Mass.) that was equipped with a built-in autosampler. The column eluent was monitored with a model 996 diode array UV detector, set to monitor 250 nm, and a FloOne β Model A525 radioactivity flow detector (Perkin Elmer) with a 250 μL flow cell. Separation of the parent compound from metabolites was accomplished using a Discovery C18 column, 250×4.6 mm, 5 μm (Supelco, Bellefonte, Pa.) at an ambient temperature of approximately 20° C. Mobile phase A was 10 mM ammonium acetate (pH 4.5) and mobile phase B was acetonitrile and they were delivered at 1 mL/min using the gradient described in Table 10. The Ultima Flo M scintillant flow rate was 3 mL/min.
Flo-One analytical software (version 3.65) was utilized to integrate the radioactive peaks. Means and standard deviations were calculated using Microsoft Excel® 2000. Micromass MassLynx software (version 4.0, Waters Corp.) was used for control of LC/MS equipment and recording of data from LC/MS analyses.

In the case of `COC1=CC(=O)c2ncccc2C1=O` [Metabolite M1, 6-Methoxy-quinoline-5,8-dione], in data set [1], the “Species (in which the metabolite was characterized)” value (shortened to “Species”) is “R, D, M, H”.

`O=C(O)C1OC(Oc2cc(N3CCN(C4CCN(c5ccc(F)c6cccnc56)CC4)CC3)c3ncccc3c2)C(O)C(O)C1O` (stereo not shown) [Metabolite M11, O-Desmethyl COMPOUND I glucuronide]: the “Chromatographic Distribution of Radioactivity in Pooled Plasma Samples” value in data set [2] (female rats, 1 hr) was determined as 56.8%; in data set [2] (female rats, 3 hr), 48.2%; in data set [2] (male rats, 1 hr), 52.9%; in data set [2] (male rats, 3 hr), 43.1%; in data set [2] (male rats, 6 hr), 41.3%. The “percent of total plasma radioactivity” value in data set [2] (male and female rats, range over time points, 5 mg/kg oral) was 41.3-56.8%.

For the molecule `COc1cc(N2CCN(C3CCN(C4=CC(=O)C(=O)c5cccnc54)CC3)CC2)c2ncccc2c1` [Metabolite M16, Desfluoro COMPOUND I quinone], in data set [1], the “Species” value is recorded as “R, M, H”.

Take `O=C1C=C(N2CCN(C3CCN(c4ccc(F)c5cccnc45)CC3)CC2)c2ncccc2C1=O` [Metabolite M23, Desmethyl COMPOUND I quinone]: the “Species” value in data set [1] is listed as “R, D, M, H”.

As for `O=S(=O)(O)Oc1cc(N2CCN(C3CCN(c4ccc(F)c5cccnc45)CC3)CC2)c2ncccc2c1` [Metabolite M24, O-Desmethyl COMPOUND I sulfate], in data set [3] (P, plasma, F, feces), the Source result is given as “P, F”. The “percent of total fecal radioactivity” value in data set [3] (pooled 0-24 hr fecal sample) amounted to 4.6%; in data set [3] (pooled 24-48 hr fecal sample), 19.3%.

Turning to “Methoxyquinolinyl-piperazine [Metabolite P1]”, the “Species” value in data set [1] is on record as “R, D, M, H”.

Regarding “[^14C]7-Ethoxycoumarin [reference compound]”, the results for the “turnover (positive control)” value in data set [4] (dog hepatocytes), in data set [4] (human hepatocytes) and in data set [4] (rat hepatocytes) were 9%, 6% and 10%, respectively.
